The values below come from patent US20100016394A1, “BIOCIDAL COMPOSITIONS” (priority 2008, published 2010).

One data set relates to mold. Briefly: Modified ASTM-G21 mold resistant test on fungicide-infused Kraft paper. In kind it is cell-based. To be noted: single active infused in Kraft paper; pass = mold resistant rating of 0 or 1; Trichoderma virens omitted from spore inocula. The protocol:
In this example unbleached Kraft paper (brown wrapping paper (density 0.0091 g/cm2) is infused with DIMTS, carbendazim (BCM) and chlorothalonil (CTL) over a broad concentration range. In addition, paired combinations as well as all 3 actives combined are also infused into Kraft paper samples. Infusion of fungicide into paper is conducted by first dissolving the technical actives in a volatile solvent followed by addition of 1 mL of a working stock solution onto the surface of the paper to give the appropriate concentration of active(s) in mg/kg paper. The solvent completely saturates the paper. In order to prevent solvent from leaching through paper onto container, the paper is supported with a Viton O-ring. The solvent saturated paper samples are allowed to dry in a chemical fume hood precipitating the fungicides within the paper. Chemical analyses of fungicide actives in the paper samples confirms that this infusion technique produces >90% incorporation efficiency based on target concentrations. Standard mold resistant tests are performed on duplicate sub samples from each paper infusion sample. A modified ASTM-G21 is the standard mold resistant test used for performance evaluation. Synergy indices are calculated for all combinations of actives using a mold resistant rating of 0 or 1 as the passing criteria for performance. Synergy calculations are made according to the following standard equation:
SI=(Ca/CA)+(Cb/CB) 2 combination tests
SI=(Ca/CA)+(Cb/CB)+(Cc/CC) 3 combination tests
Ca is the lowest concentration of component A in combination with other active(s) required to pass test criteria;
CA is the lowest concentration of component A alone required to pass test criteria;
Cb is the lowest concentration of component B in combination with other active(s) required to pass test criteria;
CB is the lowest concentration of component B alone required to pass test criteria;
Cc is the lowest concentration of component C in combination with other active(s) required to pass test criteria; and
CC is the lowest concentration of component C alone required to pass test criteria. […]

For data set [1] the following is noted: cited from earlier work.

Marks after values point to notes of the source that are not given here.

`N#Cc1c(Cl)c(Cl)c(Cl)c(C#N)c1Cl` [CTL, 1,3-dicyano-tetrachlorobenzene]: in the data set on mold, the “PPM (active), lowest concentration of component alone required to pass test criteria” value (shortened to “PPM (active), lowest concentration”) is > 1000* PPM. In the case of `COC(=O)Nc1nc2ccccc2[nH]1` [BCM, methyl 2-benzimidazolecarbamate], in the data set with mold, the “PPM (active), lowest concentration” value is 1200 PPM. `Cc1ccc(S(=O)(=O)C(I)I)cc1` [DIMTS, diiodomethyltolylsulfone]: the “PPM (active), lowest concentration” value with mold was found to be 4000 PPM. The Water solubility entry in data set [1] was “water insoluble”.
